Assay results as given in patent publication US12624068B2, “Exon skipping by peptide nucleic acid derivatives” (OliPass Corporation, priority 2016, dated 2026).
[C(1O2)] = modified PNA monomer acting as cytosine, C(pOq) type, 1O2; [A(5)] = modified PNA monomer acting as adenine, A(p) type, p=5; [G(6)] = modified PNA monomer acting as guanine, G(p) type, p=6; {Fethoc} = N-terminal Fethoc cap; {NH2} = C-terminal amide

Tests used:
mdx mice [1] = experiment: Unscheduled death, sacrifice or lymphoma in chronically treated mdx mice; type: in vivo, mouse
Excerpt: (§1) [Grouping & ASO Treatment] Male mdx mice (7 weeks old) were randomly assigned to 4 groups of 0 (mdx negative control), 10, 50, and 200 pmole/Kg “DMD-ASO 1” based on individual grip strength scores by grip test. (N=12 per group) A satellite group of 12 male C57BL/6 mice (7 weeks old) was included in this study as the wild type negative control group for the full-length dystrophin expression level.
(§2) The 50 and 200 pmole/Kg group subcutaneously received “DMD-ASO 1” as dissolved in PBS, 2× per week until the final sacrifice in Week 43. In the meantime, the 10 pmole/Kg group subcutaneously received “DMD-ASO 1” initially 2× per week during Week 0 to 8, and 3× per week afterwards to increase the ASO exposure.
[Miscellaneous Findings] There were three cases of unscheduled sacrifice or death (Weeks 26, 39 and 43) in the mdx negative control group due to a large mass of muscular lymphoma developed most likely by chronic muscular inflammation.
“DMD-ASO 1”, “DMD-ASO 2” and “DMD-ASO 6” were evaluated for their physiological effects in male mdx mice by long term subcutaneous administration. In this evaluation the animals were not subjected to physical tests requiring muscular stress in order to keep the transcription of the dystrophin gene undisturbed by excessive muscular stimulation.
[Animals & Grouping] Male mdx mice (6 weeks old) were randomly assigned to 4 groups of the mdx negative control (no ASO treatment), “DMD-ASO 1” 50 pmole/Kg, “DMD-ASO 2” […], and “DMD-ASO 6” […] based on the body weight. (N=12-13 per group) 12 male C57BL/6 mice (6 weeks old) were adopted as the wild type (WT) negative control group.
[Injection Solutions & ASO Treatment] Aqueous mother stock solutions of the ASOs were serially diluted in PBS to prepare the injection solutions of 25 nM “DMD-ASO 1” for 50 pmole/Kg “DMD-ASO 1”, 5 nM “DMD-ASO 2” for “DMD-ASO 2” 10 pmole/Kg, and 5 nM “DMD-ASO 6” for “DMD-ASO 6” 10 pmole/Kg. The animals were subcutaneously administered with the injection solutions at 2 mL/Kg, 2× per week.

[2] = test system: mouse dystrophin pre-mRNA; experiment: Dystrophin nested PCR (Method B) in muscles of mdx mice; type: in vivo; conditions: skeletal muscles sampled in Week 7
Description: The RNA samples obtained in “DMD Example 1” were subjected to a one-step cDNA synthesis using a set of exon-specific primers of [DMD-exon 20_forward: (5'→3') […] NO: 107); and DMD-exon 26_reverse: (5'→3') […] NO: 108)]. The cDNA samples were then analyzed by nested PCR against another set of exon-specific primers of [DMD-exon 20n_forward: (5'→3') […] NO: 109); and DMD-exon 26n_reverse: (5'→3') […] NO: 110)]. [Nested PCR for Exon Skipping (Method B)] Muscle samples were homogenized by grinding in a tube kept on ice, and subjected to total RNA extraction with 1 mL trizol reagent (Invitrogen) per ca 100 mg muscle tissue. The total RNAs were evaluated for exon skipping by nested PCR as described in “DMD Example 2”.

mdx mice [3] = experiment: Grip test in mdx mice chronically administered; type: in vivo, mouse; conditions: mdx mice, 10, 50 or 200 pmole/Kg subcutaneous chronic, Week 0 to 30
Description: “DMD-ASO 1” was evaluated by chronically administering to mdx mice for its ability to improve muscle function by grip test, to induce exon skipping, to upregulate the expression of the full-length dystrophin (i.e., dystrophin protein with the C-terminus encoded) by IHC, and to improve the muscular integrity by histopathology with H&E staining as described below.
as §1, §2
[Muscle Function by Grip Test] Muscle function was evaluated on a weekly basis by grip strength on a grip strength-meter (Cat. Number 47,200, Ugo Basile) according to the literature. [J. Appl. […] The grip strength scores by group were evaluated for statistical significance by student's t-test against the mdx negative control group.

[4] = test system: rats with diabetes-induced peripheral neuropathic pain (DPNP); experiment: Reversal of allodynia (von Frey) in rats with diabetes-induced peripheral neuropathic pain; type: in vivo, rat; conditions: 100 pmole/Kg subcutaneous in Days 11, 13, 15, 17 and 19
Description: “SCN-ASO 7”, “SCN-ASO 8”, “SCN-ASO 21”, “SCN-ASO 35”, “SCN-ASO 36” and “SCN-ASO 37” were evaluated for their ability to reverse the allodynia in rats with diabetes-induced peripheral neuropathic pain (DPNP). In this example, the six SCN9A ASOs targeting a total of five splice sites were evaluated for their ability to reverse the allodynia induced by diabetic neuropathy in rats.
[Induction of DPNP and Grouping] Diabetes was induced in rats by an intraperitoneal injection of streptozotocin at 60 mg/Kg in Day 0. In Day 10, rats with DPNP were randomly assigned to […] of negative control (vehicle only), “SCN-ASO 7” 100 pmole/Kg, “SCN-ASO 8” 100 pmole/Kg, “SCN-ASO 21” 100 pmole/Kg, “SCN-ASO 35” 100 pmole/Kg, “SCN-ASO 36” 100 pmole/Kg, and “SCN-ASO 37” 100 pmole/Kg. The animals were grouped based on the von Frey scores of individual animals in Day 10. (N=8-9 per group) Allodynia was scored using a set of microfilaments (Touch Test®) according to the “Up & Down” method. [J Neurosci. Methods vol 53(1), 55-63 (1994)]
[ASO Treatment and von Frey Scoring] ASO solutions for injection were prepared by serially diluting aqueous mother stock solutions of the SCN9A ASOs to 100 nM in PBS (phosphate buffered saline). Animals were subcutaneously administered with ASO at 1 mL/Kg in Days 11, 13, 15, 17 and 19. Von Frey scoring was carried out 2 hours post dose in Days 11, 13, 15, 17 and 19. Von Frey scoring was additionally performed in Days 21 and 23 in order to assess the duration of the therapeutic activity after the final dosing. Daily von Frey scores were evaluated for statistical significance by student's t-test against the negative control group (vehicle only, i.e., PBS).

Row | Substance | premature deaths (unscheduled death or sacrifice) (mdx mice [1]; DMD-ASO 1 50 pmole/Kg, DMD-ASO 2 or DMD-ASO 6 10 pmole/Kg, subcutaneous 2× per week, 66 weeks) | cases of muscular lymphoma (mdx mice [1]; chronic 10, 50 or 200 pmole/Kg up to Week 43) | in-frame PCR products of Δexons 21-23 and Δexons 21-24 (nested PCR Method B) [2] | increase of grip strength compared to the mdx negative control group (mdx mice [3]) | maximum therapeutic efficacy based on the von Frey scores in Day 19 [4]
1 | Fethoc-A(5)GA-G(6)CC(1O2)-TCA-A(5)AA(5)-T-NH2 (antisense AGAGCCTCAAAAT; Fethoc N-cap, C-terminal amide, chemistry not fully specified) [DMD-ASO 1] | two premature deaths | no cases of lymphoma | detected in muscle samples of the ASO treatment groups | 30-50% | 
2 | Fethoc-AC(1O2)T-TA(5)C-G(6)CA-A(5)AA(5)-AC(1O2)A-A(5)-NH2 (ACTTACGCAAAAACAA; all peptide nucleic acid (PNA), [C(1O2)] at 2, 14, [A(5)] at 5, 10, 12, 16, [G(6)] at 7, 5' {Fethoc}, 3' {NH2}; peptide nucleic acid written N to C) [SCN-ASO 7] |  |  |  |  | ~76%
